Test results as given in PMC8326492, “Novel Mannich bases with strong carbonic anhydrases and acetylcholinesterase inhibition effects: 3-(aminomethyl)-6-{3-[4-(trifluoromethyl)phenyl]acryloyl}-2(3H)-benzoxazolones” (Turkish Journal of Chemistry, 2021).

Key:
[1] = molecular target: hCA I (Homo sapiens, UniProt P00915); test: biochemical
Experimental: (§1) CA inhibition assay was recorded according to previous studies [4,10,27,49,60–64]. The hCA I and II isoenzymes were purified from human red blood cells by sepharose-4B-L-tyrosine-sulfanilamide affinity chromatography [65], which was used as an affinity matrix for selective retention of both hCA isoenzymes [27,66]. […] After sepharose-4B-L-tyrosine-sulfanilamide affinity chromatography, the enzyme quantity was spectrophotometrically measured at 280 nm [68]. […] Purity controls of both CA isoenzymes were performed according to the Laemmli procedure as described in previous studies. Both isoenzymes were visualized by two different acrylamide concentrations (10% and 3% acrylamide), containing 0.1% sodium dodecyl sulfate (SDS) [69,70].

[2] = molecular target: T1, AChE (Electrophorus electricus, UniProt O42275); test: biochemical; conditions: electric eel AChE; mean from three different assays
T1 construct: AChE enzyme, obtained from electric eel; from tissue; host or cells: electric eel
T1 sequence (O42275 24-633): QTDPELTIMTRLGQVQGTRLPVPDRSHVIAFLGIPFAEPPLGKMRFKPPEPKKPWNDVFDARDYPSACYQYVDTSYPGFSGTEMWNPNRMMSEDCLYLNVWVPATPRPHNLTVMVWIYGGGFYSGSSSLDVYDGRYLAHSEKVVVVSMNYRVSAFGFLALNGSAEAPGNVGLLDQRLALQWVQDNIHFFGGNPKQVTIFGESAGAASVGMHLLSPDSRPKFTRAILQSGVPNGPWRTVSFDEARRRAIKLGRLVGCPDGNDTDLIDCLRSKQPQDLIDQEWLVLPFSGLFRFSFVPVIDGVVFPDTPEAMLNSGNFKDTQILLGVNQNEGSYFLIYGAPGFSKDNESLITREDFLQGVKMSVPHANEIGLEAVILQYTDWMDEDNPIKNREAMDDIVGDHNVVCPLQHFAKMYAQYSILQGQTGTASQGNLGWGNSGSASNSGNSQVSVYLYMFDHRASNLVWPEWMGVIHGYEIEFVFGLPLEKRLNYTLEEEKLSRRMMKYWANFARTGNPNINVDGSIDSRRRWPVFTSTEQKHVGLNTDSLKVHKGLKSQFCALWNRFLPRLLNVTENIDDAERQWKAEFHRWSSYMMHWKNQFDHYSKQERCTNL
Experimental: Acetylcholinesterase enzyme inhibition assay was performed according to our previous studies. […] The substrates of acetylthiocholine iodide (AChI) and 5,5’-dithiobis(2-nitro-benzoic acid) (DTNB) was used for cholinergic enzymatic reaction. For this purpose, 1 mL of Tris / HCl buffer (1.0 M, pH 8.0) and 10 μL of different concentrations of sample solution were dissolved in deionized water. Then, an aliquot of (50 μL) AChE enzyme was transferred and incubated at room temperature for 10 min. After the incubation period, an aliquot of DTNB (0.5 mM, 50 μL) was added. Then, the enzymatic reaction was started by adding 50 μL of AChI (10 mM).

[3] = molecular target: hCA II (Homo sapiens, UniProt P00918); test: Carbonic anhydrase inhibition assay (esterase, p-nitrophenylacetate), hCA II
Experimental: as §1

Sequence of hCA I (P00915 whole entry): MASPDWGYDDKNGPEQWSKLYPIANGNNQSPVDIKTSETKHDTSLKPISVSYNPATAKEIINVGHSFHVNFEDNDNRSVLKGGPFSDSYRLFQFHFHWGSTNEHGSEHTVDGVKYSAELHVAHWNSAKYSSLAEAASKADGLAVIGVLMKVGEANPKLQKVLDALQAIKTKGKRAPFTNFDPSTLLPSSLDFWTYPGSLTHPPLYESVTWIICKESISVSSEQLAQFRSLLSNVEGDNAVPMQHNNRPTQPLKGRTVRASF

Compound	Ki [1]	Ki [2]	Ki [3]
O=C(/C=C/c1ccc(C(F)(F)F)cc1)c1ccc2[nH]c(=O)oc2c1 [Compound 1, (E )-6-{3-[4-(trifluoromethyl)phenyl]acryloyl}benzoxazol-2(3H )-one]	154 ± 9.3 nM	159 ± 33.5 nM	33.6 ± 4.5 nM
CN(C)Cn1c(=O)oc2cc(C(=O)C=Cc3ccc(C(F)(F)F)cc3)ccc21 [Compound 1a, 3-[(Dimethylamino)methyl]-6-{3-[4-(trifluoromethyl)phenyl]acryloyl}benzoxazol-2(3H)-one]	31.4 ± 5.3 nM	130 ± 17.6 nM	23.3 ± 2 nM
CCN(CC)Cn1c(=O)oc2cc(C(=O)C=Cc3ccc(C(F)(F)F)cc3)ccc21 [Compound 1b, 3-[(Diethylamino)methyl]-6-{3-[4-(trifluoromethyl)phenyl]acryloyl}benzoxazol-2(3H)-one]	36.8 ± 7.7 nM	142 ± 22.1 nM	37.6 ± 4.3 nM
CCCN(CCC)Cn1c(=O)oc2cc(C(=O)C=Cc3ccc(C(F)(F)F)cc3)ccc21 [Compound 1c, 3-[(Dipropylamino)methyl]-6-{3-[4-(trifluoromethyl)phenyl]acryloyl}benzoxazol-2(3H)-one]	22.3 ± 2.3 nM	116 ± 32 nM	24.6 ± 4.7 nM
O=C(C=Cc1ccc(C(F)(F)F)cc1)c1ccc2c(c1)oc(=O)n2CN1CCCC1 [Compound 1d, 3-(Pyrrolidin-1-ylmethyl)-6-{3-[4-(trifluoromethyl)phenyl]acryloyl}benzoxazol-2(3H)-one]	12.3 ± 1.2 nM	97.6 ± 14.4 nM	19 ± 3 nM
O=C(C=Cc1ccc(C(F)(F)F)cc1)c1ccc2c(c1)oc(=O)n2CN1CCCCC1 [Compound 1e, 3-(Piperidin-1-ylmethyl)-6-(3-(4-(trifluoromethyl)phenyl)acryloyl)benzoxazol-2(3H)-one]	27.6 ± 2.9 nM	84 ± 19.2 nM	18.1 ± 3.5 nM
O=C(C=Cc1ccc(C(F)(F)F)cc1)c1ccc2c(c1)oc(=O)n2CN1CCOCC1 [Compound 1f, 3-(Morpholinomethyl)-6-{3-[4-(trifluoromethyl)phenyl]acryloyl}benzoxazol-2(3H)-one]	20.4 ± 1.7 nM	35.2 ± 2 nM	41 ± 5.5 nM
CN1CCN(Cn2c(=O)oc3cc(C(=O)C=Cc4ccc(C(F)(F)F)cc4)ccc32)CC1 [Compound 1g, 3-[(4-Methylpiperazin-1-yl)methyl]-6-{3-[4-(trifluoromethyl)phenyl]acryloyl} benzoxazol-2(3H)-one]	53 ± 1.8 nM	48.5 ± 10.2 nM	8.6 ± 1.9 nM
